Converted amounts (≈) assume the structure as drawn.

Here are results for 20 compounds from ChEMBL document CHEMBL5331082, “p53 as a potential target for treatment of cancer: A perspective on recent advancements in small molecules with structural insights and SAR studies” (Eur J Med Chem, 2023).

One test concerns LNCaP. Put plainly: Antiproliferative activity against human LNCaP cells expressing p53 assessed as inhibition of cell growth by MTT assay. The class given is functional, cell-based. On the technique in general: Tetrazolium dyes change colour on reduction, which living cells bring about.
For test [1], the system named is PC-3. The experiment in a line: Antiproliferative activity against human PC-3 cells assessed as inhibition of cell growth by MTT assay. Format: functional, cell-based.
The subject of the next test is HeLa. The experiment in a line: Antiproliferative activity against human HeLa cells assessed as inhibition of cell growth by MTT assay. The class given is functional, cell-based.
Test [2] deals with Tumour suppressor protein p53/Mdm4 (Homo sapiens, UniProt O15151+P04637). The experiment in a line: Binding affinity to MDM4/p53 interaction (unknown origin) assessed as inhibition constant. The class given is protein assay.
Sequence of Tumour suppressor protein p53/Mdm4 (P04637 whole entry): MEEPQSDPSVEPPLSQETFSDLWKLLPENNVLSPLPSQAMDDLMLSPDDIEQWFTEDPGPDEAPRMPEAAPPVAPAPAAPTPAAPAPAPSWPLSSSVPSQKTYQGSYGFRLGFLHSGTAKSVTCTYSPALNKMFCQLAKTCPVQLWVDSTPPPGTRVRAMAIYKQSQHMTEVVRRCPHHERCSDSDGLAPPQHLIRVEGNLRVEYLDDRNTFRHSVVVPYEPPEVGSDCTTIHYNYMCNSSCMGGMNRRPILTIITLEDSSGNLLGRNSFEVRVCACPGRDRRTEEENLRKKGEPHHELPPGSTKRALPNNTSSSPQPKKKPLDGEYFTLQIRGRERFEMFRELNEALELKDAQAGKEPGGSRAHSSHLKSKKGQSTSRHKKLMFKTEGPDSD
Sequence of Tumour suppressor protein p53/Mdm4 (O15151 whole entry): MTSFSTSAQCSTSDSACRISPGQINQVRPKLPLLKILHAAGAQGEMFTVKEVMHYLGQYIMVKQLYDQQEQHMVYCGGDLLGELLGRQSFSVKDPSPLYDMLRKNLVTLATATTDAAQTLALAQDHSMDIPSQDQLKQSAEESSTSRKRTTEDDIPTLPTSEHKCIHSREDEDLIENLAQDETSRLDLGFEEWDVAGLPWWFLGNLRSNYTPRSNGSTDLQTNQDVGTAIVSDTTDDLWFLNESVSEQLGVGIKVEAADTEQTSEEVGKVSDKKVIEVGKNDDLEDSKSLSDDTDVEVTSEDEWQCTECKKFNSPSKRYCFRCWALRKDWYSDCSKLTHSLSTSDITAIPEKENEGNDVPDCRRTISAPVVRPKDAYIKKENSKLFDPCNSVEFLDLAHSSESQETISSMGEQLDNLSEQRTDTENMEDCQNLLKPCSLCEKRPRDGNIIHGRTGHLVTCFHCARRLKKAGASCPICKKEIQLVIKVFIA
Test [3] concerns A549. The experiment in a line: Antiproliferative activity against human A549 cells assessed as inhibition of cell growth. Format: functional, cell-based.
In test [4] the test system is HCT-116. The experiment in a line: Antiproliferative activity against human HCT-116 cells assessed as inhibition of cell growth. Format: functional, cell-based.
In test [5] the test system is MCF7. The experiment in a line: Antiproliferative activity against human MCF7 cells assessed as inhibition of cell growth. The class given is functional, cell-based.
The target of test [6] is T1, Tumour suppressor p53/oncoprotein Mdm2 (Homo sapiens, UniProt P04637+Q00987). Put plainly: Binding affinity to MDM2/p53 interaction (unknown origin) assessed as inhibition constant. Format: protein assay.
T1 sequence (P04637 whole entry): as the sequence (P04637 whole entry) above
T1 sequence (Q00987 whole entry): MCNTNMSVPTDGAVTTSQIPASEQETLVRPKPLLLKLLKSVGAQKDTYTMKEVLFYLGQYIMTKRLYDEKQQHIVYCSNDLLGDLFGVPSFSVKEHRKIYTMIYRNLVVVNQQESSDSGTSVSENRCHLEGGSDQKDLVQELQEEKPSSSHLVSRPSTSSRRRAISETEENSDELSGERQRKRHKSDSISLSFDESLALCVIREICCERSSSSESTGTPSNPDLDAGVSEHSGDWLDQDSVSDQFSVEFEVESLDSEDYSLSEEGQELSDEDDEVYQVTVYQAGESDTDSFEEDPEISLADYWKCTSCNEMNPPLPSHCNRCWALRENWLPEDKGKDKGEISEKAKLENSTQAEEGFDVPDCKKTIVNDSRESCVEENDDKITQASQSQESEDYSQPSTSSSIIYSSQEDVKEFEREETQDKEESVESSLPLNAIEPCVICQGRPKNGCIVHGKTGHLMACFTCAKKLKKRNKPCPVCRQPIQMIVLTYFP
The next test has as its system K562. The experiment in a line: Antiproliferative activity against human K562 cells assessed as inhibition of cell growth. Format: functional, cell-based.
In test [7] the test system is MCF7. The experiment in a line: Antiproliferative activity against human MCF7 cells assessed as inhibition of cell growth by MTT assay. The class given is functional, cell-based.
Test [8] deals with HCT-116. The experiment in a line: Antiproliferative activity against human HCT-116 cells assessed as inhibition of cell growth by MTT assay. The class given is functional, cell-based.
For test [9], the system named is MDA-MB-231. Put plainly: Antiproliferative activity against human MDA-MB-231 cells assessed as inhibition of cell growth. The class given is functional, cell-based.
In the next test the test system is JEG-3. The experiment in a line: Antiproliferative activity against human JEG-3 cells assessed as inhibition of cell growth. Format: functional, cell-based.
For test [10], the system named is HCT-116. The experiment in a line: Antiproliferative activity against human HCT-116 cells assessed as inhibition of cell growth by CCK-8 assay. The class given is functional, cell-based.
The target in test [11] is E3 ubiquitin-protein ligase Mdm2 (Homo sapiens) (UniProt Q00987). Put plainly: Binding affinity to MDM2 (unknown origin) at 10 uM relative to control.
Sequence of E3 ubiquitin-protein ligase Mdm2 (Homo sapiens) (Q00987 whole entry, looked up): as the sequence (Q00987 whole entry) above
A further test concerns SH-SY5Y. The experiment in a line: Antiproliferative activity against human SH-SY5Y cells assessed as inhibition of cell growth by CCK-8 assay. The class given is functional, cell-based.
In test [12] the test system is U-87 MG. The experiment in a line: Antiproliferative activity against human U-87 MG cells assessed as inhibition of cell growth by CCK-8 assay. Format: functional, cell-based, U-87MG ATCC.
A further test concerns HL-60. The experiment in a line: Antiproliferative activity against human HL-60 cells assessed as inhibition of cell growth. Format: functional, cell-based.
The subject of test [13] is U-87 MG. The experiment in a line: Antiproliferative activity against human U87 cells assessed as inhibition of cell growth. Format: functional, cell-based, U-87MG ATCC.
For another test, the system named is PANC-1. Put plainly: Antiproliferative activity against human PANC-1 cells assessed as inhibition of cell growth by MTT assay. Format: functional, cell-based.
The target in test [14] is E3 ubiquitin-protein ligase Mdm2 (Homo sapiens) (UniProt Q00987). The experiment in a line: Binding affinity to MDM2 (unknown origin) assessed as change in Gibbs free energy.
Test [15] has as its system A549. The experiment in a line: Antiproliferative activity against human A549 cells assessed as inhibition of cell growth by MTT assay. Format: functional, cell-based.
The test system of another test is HT-29. The experiment in a line: Antiproliferative activity against human HT-29 cells assessed as inhibition of cell growth by MTT assay. The class given is functional, cell-based.
Test [16] concerns PC-3. The experiment in a line: Antiproliferative activity against human PC-3 cells assessed as inhibition of cell growth. The class given is functional, cell-based.
The test system of test [17] is HCT-116. The experiment in a line: Induction of apoptosis in human HCT-116 cells assessed as increase in p53 level. The class given is functional.
Test [18] relates to MDA-MB-231. Put plainly: Induction of apoptosis in human MDA-MB-231 cells assessed as increase in p53 level. Format: functional.
Test [19] deals with A549. Put plainly: Induction of apoptosis in human A549 cells assessed as increase in p53 level. Format: functional.
The test system of test [20] is PC-3. The experiment in a line: Induction of apoptosis in human PC-3 cells assessed as increase in p53 level. Format: functional.
Test [21] concerns the target T1, Tumour suppressor p53/oncoprotein Mdm2. Put plainly: Inhibition of MDM2/p53 interaction (unknown origin). The class given is protein assay.

A word on the IC50: it is the midpoint of a concentration-inhibition curve. With `COc1ccc([C@@H]2CN(C)[C@@]3(C(=O)Nc4ccccc43)[C@]23N=C(c2ccc(C)cc2)OC3=O)cc1`, the IC50 with LNCaP came out at 1.08 µM; with PC-3 [1], 3.21 µM.

With `C[C@@H]1[C@@H]2CCCC[C@@H]2N2[C@H]1[C@@H](c1ccccc1)[C@@]1(CCC/C(=C\c3ccccc3)C1=O)[C@@]21C(=O)Nc2ccccc21`, in the test with HeLa, the IC50 amounted to 7.1 µM.

A word on the Ki: it is the dissociation constant of the complex between target and ligand, obtained from inhibition or displacement. `O=C1/C(=C/c2cccc(Cl)c2)c2ccccc2N1S(=O)(=O)c1cccc(Cl)c1`: the Ki in test [2] came out at 0.031 µM; in [6], 7.24 µM. Further, the IC50 with A549 [3] came out at 12.5 µM; with HCT-116 [4], 11.2 µM; in the test with MCF7 [5], 6.17 µM.

With `COc1ccc(/C=C2\CCC[C@@]3(C2=O)[C@@H]2CCCN2[C@@]2(C(=O)Nc4ccccc42)[C@H]3c2ccc(OC)cc2)cc1`, in the test with K562, the IC50 is 13.4 µM.

Consider `C[C@@H]1[C@@H]2CCCC[C@@H]2N2[C@H]1[C@@H](c1ccc(F)cc1)[C@@]1(CCC/C(=C\c3ccc(F)cc3)C1=O)[C@@]21C(=O)Nc2cc(Cl)ccc21`, for which the IC50 in the test with HeLa came out at 7.2 µM.

Take `Cc1cc(S(=O)(=O)/N=C2/NCCN2Cc2cc(C(F)(F)F)cc(C(F)(F)F)c2)c(SCc2nc(N)nc(N3CCN(c4ccccc4)CC3)n2)cc1Cl`: the IC50 in the test with MCF7 [7], with HeLa and in the test on HCT-116 [8] was 3.6 µM in each case.

In the case of `Cc1cc(S(=O)(=O)/N=C2/NCCN2Cc2ccc(C(F)(F)F)cc2)c(SCc2nc(N)nc(N3CCN(c4cccc(F)c4)CC3)n2)cc1Cl`, the IC50 with MCF7 [7], in the test on HeLa and in the test with HCT-116 [8] was 4.6 µM in each case.

With `C[C@@H]1CN(C)[C@]2(C(=O)N(CN3CCSCC3)c3ccccc32)[C@@]12CCC/C(=C\c1ccccc1)C2=O`, the IC50 with MDA-MB-231 [9] came to 31 µg/mL; with JEG-3, 31 µg/mL (≈ 61.8 µM); in the test with MCF7 [5], 31 µg/mL.

For the compound `C[C@@H]1[C@@H]2CCCC[C@@H]2N2[C@H]1[C@@H](c1ccccc1)[C@@]1(CCC/C(=C\c3ccccc3)C1=O)[C@@]21C(=O)Nc2cc(Cl)ccc21`, in the test on PC-3 [1], the IC50 came to 3.7 µM.

In the case of `O=C1NC(O)(c2ccc(Cl)cc2)C(c2ccc(Cl)cc2)=C1c1ccc(Cl)cc1` (stereo not drawn), the IC50 with HCT-116 [10] amounted to 0.59 µM; in the test with SH-SY5Y, 1.48 µM; in the test with U-87 MG [12], 0.93 µM. In test [11], this compound registered an Activity of 97%.

Regarding `Cc1cc(S(=O)(=O)/N=C2/NCCN2Cc2cc(C(F)(F)F)cc(C(F)(F)F)c2)c(SCc2nc(N)nc(N3CCN(Cc4ccccc4)CC3)n2)cc1Cl`, the IC50 in the test with MCF7 [7], in the test on HeLa and with HCT-116 [8] was 4.8 µM in each case.

As for `CN1[C@H](c2ccc(Cl)cc2)[C@@]2(C[C@]13C(=O)Nc1ccc(Br)cc13)NC(=O)N(c1ccc(F)c(Cl)c1)C2=O`, in the test on MCF7 [7], the IC50 stood at 1.3 µM.

For the compound `O=C(Nc1cccc(Cl)c1)Sc1nnc(-c2ccc(Cl)cc2)n1-c1ccccc1`, the IC50 in the test with HL-60 turned out to be 17.5 µM; with A549 [3], 3.85 µM; in the test with U-87 MG [13] it was 4.15 µM.

Consider `COc1ccc(-c2nc3sc(-c4ccc(Br)cc4Br)cn3n2)cc1`, for which the concentration for half-maximal inhibition (IC50) in the test with PANC-1 is 1.6 µM; with A549 [15] it was 1.4 µM; in the test on HT-29, 1.3 µM; with MCF7 [7], 1.2 µM. Also, in [14], the deltaG was -7.55 kcal/mol.

For the compound `C[C@@H]1CN(C)[C@]2(C(=O)N(CN3CCCC3)c3ccccc32)[C@@]12CCC/C(=C\c1ccccc1)C2=O`, the half-maximal inhibitory concentration (IC50) in the test with MDA-MB-231 [9] stood at 31 µg/mL; in the test on JEG-3, 31 µg/mL (≈ 66 µM); in the test with MCF7 [5] it was 31 µg/mL.

As to `O=C(c1nc2ccccc2[nH]1)[C@H]1[C@H](c2ccccc2)C2CC3CCCCC3N2[C@]12C(=O)Nc1ccc(Cl)cc12` (stereo partly drawn), the IC50 in the test on PC-3 [16] came to 3.4 µM; in the test with MDA-MB-231 [9], 2.4 µM; in the test on A549 [3] it was 7.81 µM; in the test with HCT-116 [4], 7.24 µM. For the same compound, the Activity in the test with HCT-116 [17] is reported as 49.83%; in the test with MDA-MB-231 [18], 51.51%; with A549 [19], 34.31%; in the test on PC-3 [20], 57.53%.

With `Cc1cc(S(=O)(=O)/N=C2/NCCN2Cc2ccc(C(F)(F)F)cc2)c(SCc2nc(N)nc(N3CCN(c4cccc(C(F)(F)F)c4)CC3)n2)cc1Cl`, the IC50 in the test with MCF7 [7], in the test on HeLa and in the test on HCT-116 [8] was 5 µM each time.

In turn, `COc1cc(OC)c(C(=O)/C=C/c2ccc(Br)cc2)c(OCC=C(C)C)c1` registered an IC50 in test [21] of 2.1 µM.

For the compound `O=c1[nH]cc(F)c(=O)[nH]1` [FLUOROURACIL], the IC50 in the test on MCF7 [5] worked out at 78.3 µM.

With `O=C1/C(=C/c2ccc(Br)cc2)CCC[C@]12[C@@H]1CCCN1[C@@]1(C(=O)Nc3ccccc31)[C@H]2c1ccc(Br)cc1`, in the test with MCF7 [5], the IC50 was determined as 15.5 µM.
